Measurements as given in patent US20100146645A1, “TRANSGENIC ANIMAL MODEL FOR MODELLING PA[…], A METHOD FOR IDENTIFYING COMPOUNDS FOR TREATMENT OF DISEASES OR DISORDERS CAUSED BY PA[…] AND A METHOD FOR USING WFS1 PROTEIN AS A TARGET FOR I[…] COMPOUNDS AGAINST PA[…]” (priority 2006, published 2010).

Tests used:
[1] = tested on: Wfs1 −/− mice; test: Elevated plus-maze, effect of diazepam on anxiety behaviour and vocalization; format: in vivo, mouse
[2] = tested on: Wfs1 −/− mice; test: Light-dark cage test, vocalization; format: in vivo, mouse; conditions: Wfs1 −/− mice (30% vocalized), anxiolytic dose of diazepam injected
Protocol: The cage was divided into two: a ⅔ part was lighted and a ⅓ part with darkened cover. The light part was divided into three equal parts, so that the most aversive part was the third part, which is located most distantly from the dark part. Anxious animals preferred to remain mostly in the dark part and avoided the aversive light partition. The experiment was performed one week after the elevated plus-maze experiment and no preliminary isolation of the animals was applied. Lighting level in the light part of the cage was 270 lux.
Namely, the female Wfs1 −/− mice performed 1.5-2 times less entrances to the various parts of the light partition, if compared to the wild type mice (FIG. 7) and the duration of their stay in the light part was twice shorter (FIG. 8). […] In the test cage 30% of the Wfs1 −/− mice vocalized.

CN1C(=O)CN=C(c2ccccc2)c2cc(Cl)ccc21 [diazepam]
Suppressed exploratory activity and risk behaviour ([1]; Wfs1-deficient mice, diazepam 1 mg/kg): significantly reduced
Stress-induced vocalization ([1]; Wfs1 −/− mice, diazepam 0.5 mg/kg): not effective
Stress-induced vocalization ([1]; Wfs1 −/− mice, diazepam 1 mg/kg): removed
Vocalization (share of vocalizing mice) ([1]; Wfs1 −/− mice, diazepam group, physiological saline group 24%): 0%
Time spent on the open arms of the cage ([1]; female Wfs1 −/− homozygotes, diazepam 1 mg/kg vs physiological saline, FIG. 4): increased
Number of downwards examinations (head dippings) from the open arms ([1]; female Wfs1 −/− homozygotes, diazepam 1 mg/kg vs physiological saline, FIG. 5): increased
Risk avoidance behaviour ([1]; female Wfs1 −/− homozygotes, diazepam 1 mg/kg vs physiological saline, FIG. 6): significantly decreased
Vocalization in the test cage [2]: completely removed
